We go through eight molecules from patent US20110245351A1, “MEDICAL ADHESIVE FOR SURGERY” (BAYER MATERIALSCIENCE AG, priority 2008, published 2011).

Bounds are passed on as bounds.

The nature of one data set: Processing / curing time of the adhesive from prepolymer A-1 and secondary diamine. The class given is physicochemical. Conditions: 1 g prepolymer A-1 with equivalent quantity of diamine, applied thinly onto tissue. As to the method: 1 g of the prepolymer A-1 were stirred well in a beaker with an equivalent quantity of dimethyl 2,2′-(pentane-1,5-diylbis(azandiyl))bis(4-methylpentanoate). Directly after this, the reaction mixture was applied thinly onto the tissue to be glued. […] After 2 mins, the surface of the adhesive was no longer tacky.
With `COC(=O)C(CC(C)C)NCCCCCNC(CC(C)C)C(=O)OC` (stereo not drawn) [Example 2, Dimethyl 2,2′-(pentan-1,5-diylbis(azandiyl))bis(4-methylpentanoate)], the “Curing to a transparent film” value was no more than 1 min and the “Time after which surface of the adhesive was no longer tacky” value is 2 min.

Still in this data set, the particulars now being: diamine as curing agent for prepolymer A-1.
For `COC(=O)C(NCCCNC(C(=O)OC)C(C)C)C(C)C` (stereo not drawn), the Processing time came out at 4 min.

On to `COC(=O)C(Cc1ccccc1)NCCCCCCNC(Cc1ccccc1)C(=O)OC` (stereo not drawn), for which the Processing time came to 4 min.

In turn, `COC(=O)C(Cc1ccccc1)NCCCNC(Cc1ccccc1)C(=O)OC` (stereo not drawn) had a Processing time of 4 min.

In turn, `CCC(C)C(NCCCNC(C(=O)OC)C(C)CC)C(=O)OC` (stereo not drawn) yielded a Processing time of 3 min.

Regarding `COC(=O)C(CC(C)C)NCCCCCNC(CC(C)C)C(=O)OC` (stereo not drawn) [drawing 17], the Processing time was 4 min.

`CCOC(=O)C(C)NCCCCNC(C)C(=O)OCC` (stereo not drawn) displayed a Processing time of 0.7 min.

Take `CCOC(=O)C(C)NCCCCCNC(C)C(=O)OCC` (stereo not drawn): the Processing time came out at 0.55 min.
